Patent US4275065A, “Modulating the immune response with 2-substituted-3-hydroxythiazolo[2,3-b]b e” (American Home Products Corporation, priority 1980, dated 1981)

What was measured:
[1] = tested on: antibody-secreting plaque-forming splenocytes (IgG and IgM); test: Cunningham modification of the Jerne assay (hemolytic plaque technique), IgM and IgG plaques per spleen; type: in vivo, CDF1 (Balb/c × DBA/2) mice; conditions: Table 2, 200 mg/kg
Procedure: In this example, the compounds of the invention are tested for their effect on antibody-secreting plaque-forming splenocytes (IgG and IgM) in the Cunningham modification of the Jerne assay. This technique is able to detect, in a quantitative manner, antibody producing cells in response to antigen stimulus in the host mouse. For study of […] immune response, sheep erythrocytes (SRBC) are used (as in the present Example), while for humoral immune response, SRBC coupled with pneumococcal polysaccharide is used.
CDF1 (Balb/c × DBA/2) mice are immunized with 0.1 ml. of 10^8 sheep erythrocytes (SRBC) intraperitonially 4-5 days before the assay. The mice are separated into groups, with one group serving as a control and all other groups receiving compounds of the invention. The treated mice are dosed with drug on day one. […] The spleens of the sacrificed mice are excised and washed several times in RPMI 1640 with 10% fetal bovine serum. 100 λ of spleen cells are mixed with a drop of guinea pig complement, four drops of RPMI 1640 and a drop of 25% SRBC in a microtiter plate well and then pipetted into a Cunningham chamber. On day four, for IgM determinations, the chambers are incubated for 30 minutes at 37° C. Antibody, released by the small proportion of active cells, attaches to the surrounding erythrocytes which are lysed by complement leaving a small plaque up to 0.5 mm. in diameter. Since only cells releasing IgM antibody form plaques directly, a "developing" serum must be added to be able to form and view IgG plaques. Thus fifth or sixth day cultured spleen cells are further treated with rabbit antimouse IgG and then incubated for 45 minutes. Both IgM and IgG plaques are counted under a stereomicroscope.
In Table 1 are given the IgM and IgG plaque counts per spleen for mice treated with 6-chloro-2-phenylthiazolo[2,3-b]benzothiazol-3(2H)-one mesoionic didehydro derivative and for the controls:
The assay is repeated using the following compounds of the invention: 2-phenylthiazolo[2,3-b]benzothiazol-3(2H)-one mesoionic didehydro derivative (A), 6-chloro-2-(p-chlorophenyl)-thiazolo[2,3-b]benzothiazol-3(2H)-one mesoionic didehydro derivative (B) and 6-chloro-2-phenylthiazolo[2,3-b]benzothiazol-3(2H)-one mesoionic didehydro derivative (C).

thymus gland = test: effect on the thymus gland (thymus weight); type: in vivo, BDF1 mice; conditions: Table 4
Procedure: The effect of the compounds of the invention on the thymus gland is measured. BDF1 mice of 18-20 gms. weight are dosed at 150 mg/kg. with 6-chloro-2-phenylthiazolo[2,3-b]benzothiazolo-3(2H)-one mesoionic didehydro derivative for eight consecutive days. The mice are sacrificed on the ninth day, the thymus glands excised and weighed. The excised thymus glands averaged […]. as compared to […]. for the control group. […] The weight loss is also correlated to dose, and the results are as follows:
Using the same technique, the following compounds of the invention were tested: 6-chloro-2-(p-chlorophenyl)thiazolo[2,3-b]benzothiazol-3(2H)-one mesoionic didehydro derivative (A), 2-phenyl-5,6,7,8-tetrahydrothiazolo[2,3-b]benzothiazol-3(2H)-one mesoionic didehydro derivative (B), 2-phenylthiazolo[2,3-b]-benzothiazol-3(2H)-one mesoionic didehydro derivative (C),6-chloro-2-trifluoroacetylthiazolo[2,3-b]benzothiazol-3(2H)-one mesoionic didehydro derivative (D), 6-chloro-3-hydroxy-2-phenylthiazolo[2,3-b]benzothiazolium bromide (E), 7-ethoxy-3-hydroxy-2-phenylthiazolo[2,3-b]benzothiazolium bromide (F), 3-hydroxy-2-phenylthiazolo[2,3-b]benzothiazolium bromide (G), and 3-hydroxy-2-phenyl-5,6,7,8-tetrahydrothiazolo[2,3-b]benzothiazolium bromide (H).

hemolytic anemia = test: autoimmune hemolytic anemia model, serum immunoglobulins; type: in vivo, NZB mice; design: IgM, Baseline: unit not given beside the values; conditions: for ANA (antinuclear antibody), 1st Reading / IgG, 1st Reading / IgM, 1st Reading: 1st Reading (156 Days); for ANA (antinuclear antibody), 1st Reading / IgG, 1st Reading / IgM, 1st Reading / IgG, % Change / IgM, % Change: 200 mg/kg, four doses over two weeks; for IgG, % Change / IgM, % Change: 142 to 156 Days
Text: NZB/W F1 mice are divided into two groups according to sex. At the initiation of drug treatment, female mice are 78.2 days old with an average weight of 30 g., while male mice are 69.5 days old with an average weight of 40 g. IgG, IgM and antinuclear antibody determinations are made on pooled samples of serum obtained by capillary bleedings of the suborbital sinus at approximately monthly intervals. The compounds of the invention are suspended in a solution of physiological saline with 0.16% CMC. All dosing is twice weekly intraperitonially.
Another autoimmune disease model, hemolytic anemia, is used to further evaluate the compounds of the invention. Thus, NZB mice, having an average age of 142 days and with well advanced hemolytic anemia, are divided into treatment groups and are dosed biweekly over a period of two weeks (four doses total) with the following compounds in the same manner as previously described: 6-chloro-2-(p-chlorophenyl)thiazolo[2,3-b]benzothiazol-3(2H)-one mesoionic didehydro derivative (A), 2-phenyl-5,6,7,8-tetrahydrothiazolo[2,3-b]benzothiazol-3(2H)-one mesoionic didehydro derivative (B), 2-phenylthiazolo[2,3-b]benzothiazol-3(2H)-one mesoionic didehydro derivative (C) and 6-chloro-2-trifluoroacetylthiazolo[2,3-b]benzothiazol-3(2H)-one mesoionic didehydro derivative (D). The immunoglobulin values from serum samples are compared with the baseline (pretreatment) for each group and the results are summarized in Table 10: […]

[2] = tested on: delayed hypersensitivity reaction; test: guinea pig delayed hypersensitivity assay (PPD); type: in vivo, Male Hartley strain guinea pigs; conditions: 50 mg/kg orally, read 24 hours after challenge, * = p < 0.05
[3] = tested on: autoimmune disease (systemic lupus erythematosus); test: autoimmune disease (systemic lupus erythematosus), immunoglobulin determinations, female NZB/W mice; type: in vivo, female NZB/W F1 mice; conditions: A 100 mg/kg, levamisole 25 mg/kg, i.p. twice weekly
Procedure: (§1) The effect of the compounds of the invention on the development and progress of autoimmune disease (systemic lupus erythematosus) in the New Zealand F1 hydrid mouse (NZB×NZW) is evaluated. NZB/W F1 mice are divided into two groups according to sex. […] IgG, IgM and antinuclear antibody determinations are made on pooled samples of serum obtained by capillary bleedings of the suborbital sinus at approximately monthly intervals. The compounds of the invention are suspended in a solution of physiological saline with 0.16% CMC. All dosing is twice weekly intraperitonially. […] Immunoglobulin values from serum samples are compared with the baseline (pretreatment) for each group.

[4] = tested on: autoimmune disease (systemic lupus erythematosus); test: autoimmune disease (systemic lupus erythematosus), immunoglobulin determinations, male NZB/W mice; type: in vivo, male NZB/W F1 mice; conditions: A 100 mg/kg, levamisole 25 mg/kg, i.p. twice weekly
Procedure: as §1

[5] = Baseline (142 Days), 200 mg/kg group

## [O-]c1c(-c2ccccc2)sc2sc3ccccc3[n+]12 [A]
[1]; Day 4
  IgG, mean (total number of plaques per spleen): 107,100 plaques per spleen
  IgM, mean (total number of plaques per spleen): 163,800 plaques per spleen
[1]; Day 5
  IgG, mean (total number of plaques per spleen): 184,590 plaques per spleen
  IgM, mean (total number of plaques per spleen): 97,020 plaques per spleen
Thymus gland; 200 mg/kg
  toxicity (printed in the thymus weight column): toxic
Hemolytic anemia
  ANA (antinuclear antibody), 1st Reading: neg.
  IgG, 1st Reading: 570
  IgM, 1st Reading: 176
  IgG, % Change: -15%
  IgM, % Change: +21%
Hemolytic anemia; [5]
  ANA (antinuclear antibody), Baseline: neg.
  IgG, Baseline: 674
  IgM, Baseline: 146

## [O-]c1c(-c2ccc(Cl)cc2)sc2sc3ccc(Cl)cc3[n+]12 [B]
[1]; Day 4
  IgG, mean (total number of plaques per spleen): 9,656 plaques per spleen
  IgM, mean (total number of plaques per spleen): 74,025 plaques per spleen
[1]; Day 5
  IgG, mean (total number of plaques per spleen): 49,218 plaques per spleen
  IgM, mean (total number of plaques per spleen): 50,250 plaques per spleen
Thymus gland; 200 mg/kg
  % Change in weight (thymus gland): -53%
  Avg. weight of thymus gland: 18.6 mg
Hemolytic anemia
  ANA (antinuclear antibody), 1st Reading: neg.
  IgG, 1st Reading: 304
  IgM, 1st Reading: 120
  IgG, % Change: -60%
  IgM, % Change: -32%
Hemolytic anemia; [5]
  IgG, Baseline: 760
  IgM, Baseline: 176

## [O-]c1c(-c2ccccc2)sc2sc3ccc(Cl)cc3[n+]12 [C]
[1]; Day 4
  IgG, mean (total number of plaques per spleen): 22,875 plaques per spleen
  IgM, mean (total number of plaques per spleen): 110,643 plaques per spleen
[1]; Day 5
  IgG, mean (total number of plaques per spleen): 117,337 plaques per spleen
  IgM, mean (total number of plaques per spleen): 55,518 plaques per spleen

## O=P1(N(CCCl)CCCl)NCCCO1 (stereo not drawn) [Cyclophosphamide, cyclophosphamide, reference compound]
[2]; 6 hours after challenge
  Mean % Inhibition of Paw Edema: 58%
[2]; 24 hours before challenge
  Mean % Inhibition of Paw Edema: 56%

## O=C(c1sc2sc3ccc(Cl)cc3[n+]2c1[O-])C(F)(F)F [D]
Thymus gland; 200 mg/kg
  % Change in weight (thymus gland): -28%
  Avg. weight of thymus gland: 28.4 mg
Hemolytic anemia
  IgG, 1st Reading: 770
  IgM, 1st Reading: 190
  IgG, % Change: +8%
  IgM, % Change: +4%
Hemolytic anemia; [5]
  IgG, Baseline: 710
  IgM, Baseline: 182

## Oc1c(-c2ccccc2)sc2sc3ccc(Cl)cc3[n+]12 [E]
Thymus gland; 75 mg/kg
  % Change in weight (thymus gland): -56%
  Avg. weight of thymus gland: 17.5 mg

## [O-]c1c(-c2ccccc2)sc2sc3c([n+]12)CCCC3 [Example 11, 2-Phenyl-5,6,7,8-tetrahydrothiazolo[2,3-b]-benzothiazol-3(2H)-one mesoionic dedihydro derivative]
Thymus gland; 200 mg/kg
  % Change in weight (thymus gland): -58%
  Avg. weight of thymus gland: 16.8 mg
Hemolytic anemia
  ANA (antinuclear antibody), 1st Reading: neg.
  IgG, 1st Reading: 356
  IgM, 1st Reading: 134
  IgG, % Change: -50%
  IgM, % Change: -31%
Hemolytic anemia; [5]
  IgG, Baseline: 710
  IgM, Baseline: 194

## CCOc1ccc2c(c1)sc1sc(-c3ccccc3)c(O)[n+]12 [F]
Thymus gland; 150 mg/kg
  % Change in weight (thymus gland): -16%
  Avg. weight of thymus gland: 33.3 mg

## Oc1c(-c2ccccc2)sc2sc3ccccc3[n+]12 [G]
Thymus gland; 75 mg/kg
  % Change in weight (thymus gland): -29%
  Avg. weight of thymus gland: 28.0 mg

## Oc1c(-c2ccccc2)sc2sc3c([n+]12)CCCC3 [H]
Thymus gland; 75 mg/kg
  % Change in weight (thymus gland): +2%
  Avg. weight of thymus gland: 40.5 mg

## c1ccc([C@H]2CN3CCSC3=N2)cc1 [Levamisole, L-(-)-2,3,5,6-tetrahydro-6-phenylimidazo[2,1-b]thiazole, reference compound]
[3]; 47 Days
  IgG level: 404 mg./100 ml.
  IgM level: 49 mg./100 ml.
[3]; 76 Days
  IgG level: 490 mg./100 ml.
  IgM level: 83 mg./100 ml.
[3]; 111 Days
  IgG level: 980 mg./100 ml.
  IgM level: 136 mg./100 ml.
[3]; 154 Days
  IgG level: 900 mg./100 ml.
  IgM level: 154 mg./100 ml.
[3]
  IgG Total Change From Baseline: +440 mg./100 ml.
  IgM Total Change From Baseline: +90 mg./100 ml.
[3]; Pretreatment
  IgG level: 460 mg./100 ml.
  IgM level: 64 mg./100 ml.
[4]; 47 Days
  IgG level: 560 mg./100 ml.
  IgM level: 68 mg./100 ml.
[4]; 76 Days
  IgG level: 710 mg./100 ml.
  IgM level: 140 mg./100 ml.
[4]; 111 Days
  IgG level: 710 mg./100 ml.
  IgM level: 128 mg./100 ml.
[4]; 154 Days
  IgG level: 910 mg./100 ml.
  IgM level: 142 mg./100 ml.
[4]
  IgG Total Change From Baseline: +460 mg./100 ml.
  IgM Total Change From Baseline: +98.5 mg./100 ml.
[4]; Pretreatment
  IgG level: 450 mg./100 ml.
  IgM level: 43.5 mg./100 ml.
